Source: US20240376091A1, “THIADIAZOLEAMIDE DERIVATIVES AND THEIR APPLICATIONS” (ZHEJIANG UNIVERSITY, priority 2021, published 2024)

Experiments:
[1] = target: T1, LBP of AR-LBD (Rattus norvegicus, UniProt P15207); assay: AR competitive ligand binding assay (PolarScreen Androgen Receptor Competitor Assay Kit, fluorescence polarization); settings: A-1 at 12.5 μM-200 μM; 4 hours incubation
T1 construct: a buffer containing AR-LBD (His-GST) and fluorescence ligand; purchased
T1 sequence (P15207 651-882 limits assumed): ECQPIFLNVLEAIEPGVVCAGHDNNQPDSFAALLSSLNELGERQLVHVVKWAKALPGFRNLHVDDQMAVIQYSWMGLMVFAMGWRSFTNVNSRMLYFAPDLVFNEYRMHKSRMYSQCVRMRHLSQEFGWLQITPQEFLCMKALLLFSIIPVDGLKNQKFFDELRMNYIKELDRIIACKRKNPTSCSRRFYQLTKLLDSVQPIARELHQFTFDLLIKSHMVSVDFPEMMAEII
Description: Detection principles: The binding affinities of compounds to the LBP of AR-LBD were evaluated using PolarScreen™ Androgen Receptor Competitor Assay Kit. […] The addition of a test compound to a microporous plate containing the binary complex would reduce fluorescence polarization values if the compound could target LBP of AR-LBD by competing the fluorescence ligand.
After 4 hours incubation in darkness at room temperature, the fluorescence polarization values were determined using a multifunctional microplate reader.

[2] = target: T2, FL-AR^WT (Homo sapiens, UniProt P10275); assay: Luciferase reporter assay in PC3 cells, wild type AR; type: cell-based; settings: read-out: IC50 toward FL-AR^WT
T2 construct: toward full-length (FL)-AR^WT and FL-AR^V684A; expressed in transfected cells; host or cells: PC3
T2 sequence (P10275 1-920): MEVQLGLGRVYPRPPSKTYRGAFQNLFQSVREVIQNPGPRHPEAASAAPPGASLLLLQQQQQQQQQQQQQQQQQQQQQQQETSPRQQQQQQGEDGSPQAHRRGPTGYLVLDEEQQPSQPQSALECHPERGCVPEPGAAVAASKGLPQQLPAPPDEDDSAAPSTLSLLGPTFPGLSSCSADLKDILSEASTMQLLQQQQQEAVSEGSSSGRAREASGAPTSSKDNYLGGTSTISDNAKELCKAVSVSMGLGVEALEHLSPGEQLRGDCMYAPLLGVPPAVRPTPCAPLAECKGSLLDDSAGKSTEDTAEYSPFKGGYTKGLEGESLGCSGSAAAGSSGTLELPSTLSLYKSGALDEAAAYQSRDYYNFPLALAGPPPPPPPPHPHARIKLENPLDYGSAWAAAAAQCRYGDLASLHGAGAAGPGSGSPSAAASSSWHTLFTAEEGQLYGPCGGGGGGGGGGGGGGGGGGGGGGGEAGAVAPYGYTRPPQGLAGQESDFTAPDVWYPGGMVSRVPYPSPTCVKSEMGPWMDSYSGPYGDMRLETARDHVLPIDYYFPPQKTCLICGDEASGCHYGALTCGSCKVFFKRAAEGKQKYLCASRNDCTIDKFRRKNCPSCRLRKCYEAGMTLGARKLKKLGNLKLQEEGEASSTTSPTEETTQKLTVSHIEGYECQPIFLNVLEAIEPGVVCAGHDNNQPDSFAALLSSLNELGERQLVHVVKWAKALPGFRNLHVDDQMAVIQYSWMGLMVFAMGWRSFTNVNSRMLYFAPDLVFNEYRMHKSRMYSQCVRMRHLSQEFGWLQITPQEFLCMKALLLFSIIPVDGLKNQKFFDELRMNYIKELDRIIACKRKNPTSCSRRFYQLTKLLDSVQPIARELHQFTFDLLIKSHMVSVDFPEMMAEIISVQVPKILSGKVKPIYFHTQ
Description: Detection principles: A reporter system for detecting the activities of firefly luciferase. To quantitatively detect the interaction between transcription factors and target promoters, the fluorescent intensities are detected to quantitatively evaluate the activities of firefly luciferase.
Methods: PC3 cells (no endogenous AR) treated with DMEM media supplemented with 5% CSS for 48 hours. Then, the PC3 cells (1.2×10^4/well) were seeded into 96-well plates. After 16 hours, the PC3 cells were transfected with 20 ng/well plasmid and incubated for 20 min at room temperature. After 1 day incubation, the media in the wells was replaced, followed by the addition of various concentrations of compounds. After 48 hours, the culture medium was discarded and the cells were washed with 100 μL PBS, followed by addition of 30 μL 1×PLB and the 96-well plates was shaken on a shaker for 20 min to ensure complete lysis of the cells. Then, the cell lysis supernatant (20 μL/well) was transferred to a white opaque 96-well, and addition of 30 μL Luciferase Assay Reagent II to each well. Then, the fluorescent intensities of firefly luciferase were evaluated. Afterwards, 30 μL Stop&Glo Reagant was added to the wells, and the fluorescent intensities of […] evaluated.

[3] = system: LNCaP xenograft; settings: mouse, in vivo
Description: Methods: LNCaP cells were injected to the Male CB17 SCID mice (6-8 weeks old). Once tumor size reached target value, the mice were randomized into three groups with 6-8 mice per group. […] The mice weight and tumor volume were periodically recorded. Finally, the tumors were harvested.

CC(=O)Cc1nsc(NC(=O)c2cc(-c3cccc(C(F)(F)F)c3)oc2C)n1 [Compound A-1, 2-Methyl-N-(3-(2-oxopropyl)-1,2,4-thiadiazol-5-yl)-5-(3-(trifluoromethyl)phenyl)furan-3-carboxamide]
binding to the AR LBP [1]: did not bind to the AR LBP
IC50 [2]: 1840 nM
mortality [3]: no mortality
